The values below come from patent publication US11247998B2, “Piperazine heteroaryl derivative, preparation method therefor and use of same in medicine” (priority 2017, dated 2022).

Data set [1] is described as follows: Pharmacokinetics assay in rats after intragastrical administration (LC/MS/MS of plasma). In kind it is in vivo. To be noted: both sexes, rat, plasma, po, SD rats, 2 mg/kg. The procedure:
Pharmacokinetics assay of the compound of the present invention
Rats were used as test animals. The drug concentration in plasma at different time points was determined by LC/MS/MS method after intragastrical administration of the compound of Example 1, the compound of Example 2, the compound of Example 4, the compound of Example 6, the compound of Example 7, the compound of Example 11, the compound of Example 39, the compound of Example 42, the compound of Example 44, the compound of Example 45 and the compound of Example 47 to rats. The pharmacokinetic behavior and property of the compound of the present invention were studied and evaluated in rats.
44 Healthy adult SD rats (half male and half female, 4 rats/group) were purchased from Shanghai Jiesijie Laboratory Animal Co., LTD, with Certificate No.: SCXK (Shanghai) 2013-0006.
A certain amount of the test compound was weighed, and added with 5% by volume of DMSO, 5% by volume of tween 80 and 90% by volume of normal saline to prepare a 0.2 mg/mL colorless, clear and transparent solution.
After an overnight fast, SD rats were administrated intragastrically with the test compound at an administration dose of 2.0 mg/kg and an administration volume of 10.0 mL/kg.
The rats were intragastrically administrated the compound of Example 1, the compound of Example 2, the compound of Example 4, the compound of Example 6, the compound of Example 7, the compound of Example 11, the compound of Example 39, the compound of Example 42, the compound of Example 44, the compound of Example 45 and the compound of Example 47. 0.1 ml of blood was taken from the orbit before administration and at 0.5, 1.0, 2.0, 4.0, 6.0, 8.0, 11.0 and 24.0 hours after administration. The samples were stored in heparinized tubes, and centrifuged for 10 minutes at 3500 rpm to separate the blood plasma. The plasma samples were stored at −20° C. The rats were fed two hours after administration.
The content of the test compound in the plasma of rats after intragastrical administration of the test compound at different concentrations was determined: 25 μL of rat plasma at each time after administration was taken, added with 40 μL of the internal standard solution of camptothecin (100 ng/mL) and 200 μL of acetonitrile, vortex-mixed for 5 minutes, and centrifuged for 10 minutes (4000 rpm). 0.2 μL of the supernatant was taken from the plasma samples for LC/MS/MS analysis.

For data set [2], the system named is HBV DNA replication in HepG2.2.15 cells. Put plainly: In vitro anti-HBV activity test (quantitative assay of intracellular HBV DNA), HepG2.2.15 cells, quantitative PCR. Format: cell-based, hepatitis B virus (HBV). Conditions: Hepatitis B virus, HBV DNA by quantitative PCR; for EC50: compound treatment Day 2 to Day 8; for Emax: read-out: Emax (effect value of the compound to maximally inhibit HBV DNA replication). As to the method: In vitro anti-HBV activity test of the compound of the present invention (quantitative assay of intracellular HBV DNA)
HepG2.2.15 cell is a stable expression cell line that has integrated HBV genome.
Virus particles containing HBV DNA can be synthesized by replication, transcription and encapsidation in the cells, and then secreted. In this study, the quantitative analysis of HBV DNA produced by HepG2.2.15 in vitro proliferation was carried out by quantitative PCR method, thereby determining the activity of the compound of the present invention on inhibiting the HBV DNA replication by inhibiting the assembly of HBV capsid protein.
HepG2.2.15 cells were cultured in DMEM/high glucose medium (10% FBS, […] G418) and passaged every three days. On the day of the experiment, a cell suspension was prepared with fresh cell culture medium, and incubated in a 96-well plate (Corning, #3599) at 40,000 cells/well, at 5% carbon dioxide, 37° C. On Day 2, the compound was dissolved in pure DMSO at a concentration of 20 mM, and then the first concentration of 2 mM was formulated with DMSO, and diluted in 4-fold concentration gradient to 8 concentrations. A control well was added with 90 μl of DMSO. The compound solution was diluted 200-fold with DMEM/high glucose medium. The cell culture plate inoculated on Day 1 was taken out. The medium in the wells was removed by a negative pressure suction device, and the formulated medium containing the compound at each concentration was added respectively to each well at 200 μl/well. The plate was incubated at 37° C. for 72 hours. On Day 5, the medium of the cultured cells was replaced with fresh medium containing the same compound in the same way as Day 2, and then the plate was incubated at 37° C. for 72 hours. On Day 8, the cell culture plate was taken out, centrifuged at 300 g for 3 minutes, and the culture supernatant was collected at 200 μl/well. HBV DNA was extracted from the cell culture supernatant with Qiagen automatic DNA extraction device, and the specific method referred to the instructions of the reagents and instruments. Finally, the extracted DNA was eluted with DNA elution buffer at 100 μl/well. The extracted DNA was subjected to quantitative PCR analysis of HBV DNA using Hepatitis B virus nucleic acid quantitative detection kit (Triplex International Biosciences Co., Ltd.), and the specific method referred to the instruction of the kit. The quantitative standard curve was obtained with the standard sample provided in the kit, and the experiments were performed in parallel. Quantitative conversion of each sample was carried out according to the standard curve. Finally, the EC50 value of the compound was calculated with Graphpad Prism software according to each concentration of the compound and the corresponding DNA value.
The in vitro activity of the compound of the present invention on inhibiting the HBV DNA replication by inhibiting the assembly of HBV capsid protein was determined by the above experiment.

A short description of data set [3]: Effect on in vitro proliferation of HepG2 cells (CellTiter-Glo). In kind it is cell-based. Conditions: human; HepG2 cells, 72 hours, CellTiter-Glo. The procedure:
Test Example 2. Effect of the Compound of the Present Invention on In Vitro Proliferation of HepG2 Cells
HepG2 cells in logarithmic growth phase were taken and digested with trypsin to prepare a cell suspension, which was incubated in a 96-well plate (transparent bottom white 96-well plate, PerkinElmer) at 6,000 cells/well, at 5% carbon dioxide, 37° C. for 16-20 hours. On Day 2, the compound was dissolved in pure DMSO at a concentration of 20 mM. The compound was diluted in 3-fold concentration gradient using an automatic pipetting station (Bravo), 8 concentration points for each compound, and the control well was DMSO. The compound formulated in DMSO at each concentration point was diluted 200-fold with EMEM (containing 10% FBS) medium. The cell culture plate inoculated on Day 1 was taken out. The medium in the wells was removed by a negative pressure suction device, and the formulated medium containing the compound at each concentration was added respectively to each well at 100 μl/well. The plate was incubated at 37° C. for 72 hours. On Day 5, the 96-well cell culture plate was taken out, and freshly formulated CellTiter Glo was added to each well at 100 μl/well. The 96-well plate was left to stand for 5-10 minutes, the bottom was then sealed with a white bottom sealing film (PerkinElmer). The plate was placed in the microplate reader to measure the luminescence signal. The CC50 value of the compound was calculated with Graphpad Prism software according to each concentration of the compound and the corresponding proliferation inhibition signal value.
The inhibition effect of the compound of the present invention on in vitro proliferation of HepG2 cells was determined by the above experiment.
(In general: ATP-based viability assays read luminescence as a measure of living cells.)

What is called AUC is concentration integrated over time. As a reminder, the MRT is the average time that molecules of a dose stay in the body. In the case of `C[C@@H](NC(=O)c1ncn2c1CN(C(=O)Nc1cc(F)c(F)c(F)c1)CC2)C(F)(F)F` [Example 1, (R)—N^7-(3,4,5-Trifluorophenyl)-N^1-(1,1,1-trifluoropropan-2-yl)-5,6-dihydroimidazo[1,5-α]pyrazine-1,7(8H)-dicarboxamide], in data set [1] (read-out: Apparent distribution volume Vz/F), the Vd/F was 2.36 ± 0.245 L/kg. Also, the exposure (AUC) in data set [1] (read-out: Area under curve AUC) worked out at 14400 ± 3010 ng·h/mL. Moreover, the bioavailability in data set [1] (read-out: Bioavailability (%) F %) amounted to 119%. In addition, in data set [1] (read-out: Clearance CLz/F), the CL/F is 2.39 ± 0.5 mL/min/kg. The half-life in data set [1] (read-out: Half-life T1/2 (converted)) was 11.7 ± 2.3 h. For the same compound, the Cmax in data set [1] (read-out: Plasma concentration Cmax) is 640 ± 102 ng/mL. For the same compound, in data set [1] (read-out: Residence time MRT), the mean residence time MRT was determined as 17.4 ± 3 h.

The term EC50 denotes the concentration needed to bring the measured effect to its halfway point. By Emax is commonly meant the maximal effect, on the per cent scale that the assay sets. Usually CC50 stands for the concentration at which the toxic effect on the cells reaches its halfway point. A lower CC50 goes with harm at low concentration. As for `C[C@H]1Cn2ncc(C(=O)NC(C)(C)C)c2CN1C(=O)Nc1ccc(F)c(F)c1` [Example 8, (S)—N^3-(Tert-butyl)-N^5-(3,4-difluorophenyl)-6-methyl-6,7-dihydropyrazolo[1,5-α]pyrazine-3,5(4H)-dicarboxamide], in data set [2], the EC50 was found to be 15 nM and the Emax was found to be 100%. Also, the CC50 at 72 h in data set [3] is > 100000 nM.

With `C[C@@H](NC(=O)c1cnn2c1CN(C(=O)Nc1ccc(F)c(C#N)c1)CC2)C(F)(F)F` [Example 9, (R)—N^5-(3-Cyano-4-fluorophenyl)-N^3-(1,1,1-trifluoropropan-2-yl)-6,7-dihydropyrazolo[1,5-α]pyrazine-3,5(4H)-dicarboxamide], in data set [2], the EC50 worked out at 28 nM and the Emax stood at 100%. Also, the CC50 at 72 h in data set [3] was > 100000 nM.

`C[C@H]1Cn2ncc(C(=O)NC(C)(C)C)c2CN1C(=O)Nc1cc(F)c(F)c(F)c1` [Example 10, (S)—N^3-(Tert-butyl)-6-methyl-N^5-(3,4,5-trifluorophenyl)-6,7-dihydropyrazolo[1,5-α]pyrazine-3,5(4H)-dicarboxamide]: in data set [2], the EC50 is 29 nM and the Emax came to 100%. The CC50 at 72 h in data set [3] was > 100000 nM.

With `C[C@H]1Cn2cnc(C(=O)NC(C)(C)C)c2CN1C(=O)Nc1ccc(F)c(F)c1` [Example 12, (S)—N^1-(Tert-butyl)-N^7-(3,4-difluorophenyl)-6-methyl-5,6-dihydroimidazo[1,5-α]pyrazine-1,7-(8H)-dicarboxamide], in data set [2], the EC50 came to 32 nM and the Emax worked out at 100%. Besides, in data set [3], the CC50 at 72 h was > 100000 nM.

In the case of `C[C@H]1Cn2cnc(C(=O)NC3(C)COC3)c2CN1C(=O)Nc1cc(F)c(F)c(F)c1` [Example 13, (S)-6-Methyl-N^1-(3-methyloxetan-3-yl)-N^7-(3,4,5-trifluorophenyl)-5,6-dihydroimidazo[1,5-α]pyrazine-1,7(8H)-dicarboxamide], in data set [2], the EC50 amounted to 35 nM and the Emax was found to be 100%. In data set [3], the CC50 at 72 h is > 100000 nM.

Consider `C[C@H]1Cn2ncc(C(=O)NC3(C)COC3)c2CN1C(=O)Nc1cc(F)c(F)c(F)c1` [Example 14, (S)-6-Methyl-N^3-(3-methyloxetan-3-yl)-N^5-(3,4,5-trifluorophenyl)-6,7-dihydropyrazolo[1,5-a]pyrazine-3,5(4H)-dicarboxamide], for which, in data set [2], the EC50 turned out to be 44 nM and the Emax came to 100%. In addition, in data set [3], the CC50 at 72 h is > 100000 nM.

On to `C[C@H]1Cn2ncc(C(=O)N[C@H](C)C(F)(F)F)c2CN1C(=O)Nc1ccc(F)c(C#N)c1` [Example 15, (S)—N^5-(3-Cyano-4-fluorophenyl)-6-methyl-N^3-((R)-1,1,1-trifluoropropan-2-yl)-6,7-dihydropyrazolo[1,5-α]pyrazine-3,5(4H)-dicarboxamide], for which, in data set [2], the half-maximal effective concentration (EC50) is 29 nM and the Emax came to 100%. Further, in data set [3], the CC50 at 72 h was > 100000 nM.

Take `C[C@H]1Cn2cnc(C(=O)N3CCCC3)c2CN1C(=O)Nc1ccc(F)c(F)c1` [Example 59, (S)—N-(3,4-Difluorophenyl)-6-methyl-1-(pyrrolidine-1-carbonyl)-5,6-dihydroimidazo[1,5-α]pyrazine-7(8H)-carboxamide, reference compound]: in data set [2], the midpoint of the response, the EC50, lay at 5270 nM and the Emax stood at 90%.
